{"source": "patent US20210353648A1", "about": "“GRAPIPRANT UNIT DOSAGE FORMS” (Arrys Therapeutics, Inc., priority 2018, published 2021)", "format_in_all_cases": "in vivo, BALB/c mice", "key": {"[1]": {"tested_on": "CT-26 mouse colon adenocarcinoma model", "assay": "Anti-tumor activity in the CT-26 colon adenocarcinoma mouse model, alone and with anti-PD-1", "protocol": "(§1) The antitumor activity of Compound B as a single agent and combined with a mouse anti-PD-1 antibody was evaluated in the CT-26 mouse colon adenocarcinoma model grown in BALB/c mice. Mice were inoculated subcutaneously in the right flank with 5×10^5 tumor cells. When tumors reached an average size of 71 mm^3 (6 days after tumor cell inoculation) dosing was initiated. The dosing regimens in the 8 separate cohorts comprising 10 mice each are as follows: […]"}, "[2]": {"tested_on": "CT-26 mouse colon adenocarcinoma model", "assay": "Anti-tumor activity in the CT-26 model, additional experiment with anti-PD1", "conditions": "single agents (Compound B 15 mg/kg BID; anti-PD1 10 mg/kg BIW) versus vehicle, n=7/group", "protocol": "as §1, with “mouse anti-PD1” for “mouse anti-PD-1”, “BALB/c mice in an additional experiment.” for “BALB/c mice.”, “of 91” for “of 71”, “mm^3” for “mm^3 (6 days after tumor cell inoculation)”, “the 4” for “the 8”, “comprising 7” for “comprising 10”"}, "[3]": {"tested_on": "4T1 mouse breast cancer model", "assay": "Anti-tumor activity in the 4T1 model, additional experiment with anti-PD1", "conditions": "Compound B 15 mg/kg BID single agent, n=7/group", "protocol": "The antitumor activity of Compound B as a single agent and combined with a mouse anti-PD1 antibody was evaluated in the 4T1 mouse breast cancer model grown in BALB/c mice in an additional experiment. Mice were inoculated subcutaneously in the right flank with 3×10^5 tumor cells. When tumors reached an average size of 97 mm^3 dosing was initiated. The dosing regimens in the 4 separate cohorts comprising 7 mice each are as follows: […]"}, "[4]": {"tested_on": "4T1 mouse breast cancer model", "assay": "Anti-tumor activity in the 4T1 breast cancer mouse model, alone and with anti-CTLA4", "protocol": "The antitumor activity of Compound B (as described in example 9 above) as a single agent and combined with a mouse anti-CTLA4 antibody was evaluated in the 4T1 mouse breast cancer model grown in BALB/c mice. Mice were inoculated subcutaneously in the right flank with 3×10^5 tumor cells. When tumors reached an average size of 100 mm^3 (7 days after tumor cell inoculation) dosing was initiated."}, "[5]": {"tested_on": "CT-26 tumors", "assay": "Immune cell composition of CT-26 tumors by flow cytometry", "conditions": "after 7 days dosing; Compound B 15 mg/kg BID, anti-PD-1 10 mg/kg Q3D; versus vehicle", "protocol": "The immune cell composition of Compound B (as described in example 9 above) as a single agent and combined with a mouse anti-PD1 antibody was evaluated in the CT-26 mouse colon adenocarcinoma model grown in BALB/c mice. Mice were inoculated subcutaneously in the right flank with 5×10^5 tumor cells. When tumors reached an average size of 85 mm^3 dosing was initiated. The dosing regimens in the 4 separate cohorts comprising 10 mice each are listed as follows:\nAfter dosing animals for 7 days, tumors were resected and used to prepare single cell suspensions. Live cells representing tumor and immune cells were stained with cocktails of antibodies targeting multiple immune cell markers (anti-CD45, anti-CD3, anti-CD4, anti-CD8, anti-CD25, anti-FoxP3, anti-PD-1, anti-CD11c) conjugated to different fluorescent tags. The stained cells were fixed in 4% paraformaldehyde and quantified using a multi-color flow cytometer (Fortessa). The data was analyzed with FloJo software."}}}
{"smiles": "C[C@H](NC(=O)c1cc(Cl)cnc1Oc1cccc(F)c1)c1ccc(C(=O)O)cc1", "note": "[Compound B]", "values": [{"measurement": "tumor growth kinetics during the period of dosing", "setting": "[1]; 15 mg/kg QD and BID p.o., single agent, versus vehicle, n=10/group", "result": "not notably different from the vehicle treated mice"}, {"measurement": "mice still alive", "setting": "[1]; 99 days after tumor inoculation", "result": "1 out of 10 mice"}, {"measurement": "tumor free mice", "setting": "[1]; 99 days after tumor inoculation, 10 mice per group", "result": 1, "unit": "mice"}, {"measurement": "tumor growth kinetics during the period of dosing", "setting": "[2]", "result": "less than that of the vehicle group"}, {"measurement": "tumor growth kinetics during the period of dosing", "setting": "[3]", "result": "less than that of the vehicle group and anti-PD1 when dosed alone"}, {"measurement": "mice still alive", "setting": "[4]; 47 days after tumor inoculation", "result": "none"}, {"measurement": "tumor growth kinetics during the period of dosing", "setting": "[4]; single agents (Compound B 15 mg/kg BID; anti-CTLA4) versus vehicle, n=10/group", "result": "decreased relative to the vehicle treated mice"}, {"measurement": "percentage of activated T cells (CD45, CD3, CD8; CD25 expression)", "setting": "[5]", "result": "did not"}, {"measurement": "percentage of dendritic cells (CD45, CD11c positive)", "setting": "[5]", "result": "increased percentage"}, {"measurement": "regulatory T cells (CD45, CD4, FoxP3, CD25 positive)", "setting": "[5]", "result": "significant decrease"}]}
